Experiments:
MNK2a = MNK2a (Homo sapiens (Human), UniProt Q9HBH9); test: MNK2a in vitro kinase assay (Assay 2), ADP-Glo; type: biochemical; conditions: assay 2; read-out: MNK2 IC50
From the text: B. MNK2a In Vitro Kinase Assay (Assay 2)

MNK1a = MNK1a (Homo sapiens (Human), UniProt Q9BUB5); test: MNK1 in vitro kinase assay (Assay 3), Z'-LYTE; type: biochemical; conditions: for inhibition at 1 µM: read-out: MNK1 % INH
From the text: C. MNK1 In Vitro Kinase Assay (Assay 3)
MNK1 Data can be obtained from the MNK1 Z′-LYTE® assay. The MNK1 Z′-LYTE® screening protocol and assay conditions are also described on www.invitrogen.com.
The assay is described as follows:
The Z′-LYTE® biochemical assay employs a fluorescence-based, coupled-enzyme format and is based on the differential sensitivity of phosphorylated and non-phosphorylated peptides to proteolytic cleavage. The peptide substrate is labeled with two fluorophores—one at each end—that make up a FRET pair.
In the primary reaction, the kinase transfers the gamma-phosphate of ATP to a single tyrosine, serine or threonine residue in a synthetic FRET-peptide. In the secondary reaction, a site-specific protease recognizes and cleaves non-phosphorylated FRET-peptides. Phosphorylation of FRET-peptides suppresses cleavage by the Development Reagent. Cleavage disrupts FRET between the donor (i.e., coumarin) and acceptor (i.e., fluorescein) fluorophores on the FRET-peptide, whereas uncleaved, phosphorylated FRET-peptides maintain FRET. A ratiometric method, which calculates the ratio (the Emission Ratio) of donor emission to acceptor emission after excitation of the donor fluorophore at 400 nm, is used to quantitate reaction progress, as shown in the equation below.
The 2×MKNK1 (MNK1) mixture is prepared in 50 mM HEPES pH 7.5, 0.01% BRIJ-35, 10 mM MgCl2, 4 mM MnCl2, 1 mM EGTA, 2 mM DTT.
The Test Compounds are screened in 1% DMSO (final) in the well.
All Peptide/Kinase Mixtures are diluted to a 2× working concentration in the MNK1 Kinase Buffer.
All ATP Solutions are diluted to a 4× working concentration in Kinase Buffer (50 mM HEPES pH 7.5, 0.01% BRIJ-35, 10 mM MgCl2, 1 mM EGTA).
Development Reagent Solution:
The Development Reagent is diluted in Development Buffer
1. 2.5 μL—4× Test Compound
2. 5 μL—2× Peptide/Kinase Mixture
5. 60-minute Kinase Reaction incubation at room temperature
6. 5 μL—Development Reagent Solution
8. 60-minute Development Reaction incubation at room temperature
9. Read on fluorescence plate reader and analyze the data
Control C0%=Average Coumarin emission signal of the 0% Phos. Control F100%=Average Fluorescein emission signal of the 100% Phos. Control F0%=Average Fluorescein emission signal of the 0% Phos. Control Graphing Software
SelectScreen® Kinase Profiling Service uses XLfit from IDBS. […] The activity of MNK proteins can be assayed also by other in vitro kinase assay formats. […] In general, MNK kinase assays can be performed such that a MNK substrate such as a protein or a peptide, which may or may not include modifications as further described below, or others are phosphorylated by MNK proteins having enzymatic activity in vitro. The activity of a candidate agent can then be determined via its ability to decrease the enzymatic activity of the MNK protein. The kinase activity may be detected by change of the chemical, physical or immunological properties of the substrate due to phosphorylation.

Chain of MNK2a (Q9HBH9 whole entry): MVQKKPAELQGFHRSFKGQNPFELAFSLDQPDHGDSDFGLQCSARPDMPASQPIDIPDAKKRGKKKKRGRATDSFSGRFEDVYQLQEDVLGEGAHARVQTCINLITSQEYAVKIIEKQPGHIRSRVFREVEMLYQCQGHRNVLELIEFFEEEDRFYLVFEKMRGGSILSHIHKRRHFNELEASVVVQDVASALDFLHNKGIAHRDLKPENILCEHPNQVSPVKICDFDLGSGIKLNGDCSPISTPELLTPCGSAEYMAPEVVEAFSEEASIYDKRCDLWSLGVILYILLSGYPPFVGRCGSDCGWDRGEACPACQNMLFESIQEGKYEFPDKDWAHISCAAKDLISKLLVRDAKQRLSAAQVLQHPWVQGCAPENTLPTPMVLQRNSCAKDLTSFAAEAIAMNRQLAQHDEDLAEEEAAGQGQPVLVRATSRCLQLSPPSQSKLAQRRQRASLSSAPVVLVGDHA
Chain of MNK1a (Q9BUB5 other isoform, or with tags, fused parts or gaps): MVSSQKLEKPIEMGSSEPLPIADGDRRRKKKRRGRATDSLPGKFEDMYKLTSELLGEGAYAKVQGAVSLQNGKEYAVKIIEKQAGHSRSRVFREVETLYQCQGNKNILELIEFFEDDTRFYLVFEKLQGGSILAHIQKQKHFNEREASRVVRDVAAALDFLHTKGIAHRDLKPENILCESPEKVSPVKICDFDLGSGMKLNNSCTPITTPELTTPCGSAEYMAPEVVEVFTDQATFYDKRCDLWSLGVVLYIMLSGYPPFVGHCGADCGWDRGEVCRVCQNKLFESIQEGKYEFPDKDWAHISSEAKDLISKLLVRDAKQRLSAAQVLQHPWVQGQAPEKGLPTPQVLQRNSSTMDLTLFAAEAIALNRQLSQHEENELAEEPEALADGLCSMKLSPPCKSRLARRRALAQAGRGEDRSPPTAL

| IC50 (MNK2a) [nM] | inhibition at 1 µM (MNK1a; compound concentration of 1 μM) [%] | SMILES | other results |
| --- | --- | --- | --- |
| 27 | 86 | COc1cc(N=S(C)(=O)c2cccnc2)cc2ncnc(Nc3ccc(F)cc3O[C@H]3COC[C@H]3O)c12 (mixture of isomers) [Example 9.12] |  |
| 32 | 82 | COc1cc(N=S(C)(=O)C2CCOCC2)cc2ncnc(Nc3ccc(F)cc3O[C@H]3COC[C@H]3O)c12 (mixture of isomers) [Example 9.15] |  |
| 33 | 92 | COc1cc(N=S(C)(=O)C2CC2)cc2ncnc(Nc3ccc(F)cc3O[C@H]3COC[C@H]3O)c12 (mixture of isomers) [Example 9.17] |  |
| 42 |  | COc1cc(N=S(C)(=O)C(C)(C)C)cc2ncnc(Nc3ccc(F)cc3O[C@H]3COC[C@H]3O)c12 (mixture of isomers) [Example 9.19] | IC50 (MNK1a): 329 nM |
| 23 | 87 | COc1cc(N=S(C)(=O)C(C)C)cc2ncnc(Nc3ccc(F)cc3O[C@H]3COC[C@H]3O)c12 (mixture of isomers) [Example 9.20] |  |
| 23 | 84 | COc1cc(N=S(C)(=O)c2ccccc2)cc2ncnc(Nc3ccc(F)cc3O[C@H]3COC[C@H]3O)c12 (mixture of isomers) [Example 9.21] |  |
| 8 | 93 | COc1cc(N=S2(=O)CCC(C)C2)cc2ncnc(Nc3ccc(F)cc3O[C@H]3COC[C@H]3O)c12 (mixture of isomers) [Example 9.23] |  |
|  | 100 | Cc1cc(N=S2(=O)CCCC2)cc2ncnc(Nc3cccnc3O[C@@H]3COC[C@@H]3O)c12 (single isomer, unassigned) [Example 14.3] |  |
|  | 103 | Cc1cc(N=S2(=O)CCCC2)cc2ncnc(Nc3cccnc3O[C@H]3COC[C@H]3O)c12 (single isomer, unassigned) [Example 14.4] |  |
|  | 98 | Cc1cc(N=S2(=O)CCCC2)cc2ncnc(Nc3ccc(F)cc3O[C@H]3CNC[C@@H]3O)c12 [Example 3.6] |  |
| 18 |  | COc1cc(N=S(C)(=O)C2CC2)cc2ncnc(Nc3ccc(F)cc3O[C@H]3COC[C@@H]3O)c12 (stereo partly shown) [Example 9.22] |  |
| 7 |  | COc1cc(N=S2(=O)CCC(O)CC2)cc2ncnc(Nc3ccc(F)cc3O[C@H]3COC[C@@H]3O)c12 (stereo partly shown) [Example 9.26] |  |
| 13 |  | COc1cc(N=S(C)(=O)c2ccccc2)cc2ncnc(Nc3ccc(F)cc3O[C@H]3COC[C@@H]3O)c12 (stereo partly shown) [Example 9.28] |  |
| 43 |  | COc1cc(N=S(C)(=O)c2ccncc2)cc2ncnc(Nc3ccc(F)cc3O[C@H]3COC[C@@H]3O)c12 (stereo partly shown) [Example 9.30] |  |
| 3 |  | Cc1cc(N=S2(=O)CCC2)cc2ncnc(Nc3ccc(F)cc3OC3CCC(O)OC3)c12 (stereo not shown) [Example 12.1] |  |
| 3 |  | Cc1cc(N=S(C)(C)=O)cc2ncnc(Nc3ccc(F)cc3OC3CCC(O)OC3)c12 (stereo not shown) [Example 12.2] |  |
| 7 |  | CO[C@H]1COC[C@H]1Oc1cc(F)ccc1Nc1ncnc2cc(N=S(C)(C)=O)cc(C)c12 [Example 14.7] |  |

Second part, the compound before the results:

| SMILES | IC50 (MNK2a) [nM] | inhibition at 1 µM (MNK1a; compound concentration of 1 μM) [%] | other results |
| --- | --- | --- | --- |
| CS(C)(=O)=Nc1cc(Cl)c2c(Nc3ccc(F)cc3O[C@H]3COC[C@H]3O)ncnc2c1 (racemic) [Example 1.3] | 3 | 95 |  |
| CO[C@@H]1COC[C@@H]1Oc1cc(F)ccc1Nc1ncnc2cc(N=S(C)(C)=O)cc(Cl)c12 (racemic) [Example 1.4] | 2 | 97 |  |
| O=S1(=Nc2cc(Cl)c3c(Nc4ccc(F)cc4O[C@H]4COC[C@H]4O)ncnc3c2)CCCC1 (racemic) [Example 1.5] | 2 | 88 |  |
| CO[C@@H]1COC[C@@H]1Oc1cc(F)ccc1Nc1ncnc2cc(N=S3(=O)CCCC3)cc(Cl)c12 (racemic) [Example 1.6] |  |  | IC50 (MNK1a): 45 nM |
| CO[C@H]1COC[C@H]1Oc1ncccc1Nc1ncnc2cc(N=S(C)(C)=O)cc(C)c12 (racemic) [Example 2.1] |  | 88 |  |
| Cc1cc(N=S2(=O)CCCC2)cc2ncnc(Nc3cccnc3O[C@@H]3COC[C@@H]3O)c12 (racemic) [Example 2.3] |  | 102 |  |
| Cc1cc(N=S(C)(C)=O)cc2ncnc(Nc3cccnc3O[C@@H]3COC[C@@H]3O)c12 (racemic) [Example 2.4] | 17 | 93 |  |
| Cc1cc(N=S(C)(C)=O)cc2ncnc(Nc3ccc(F)cc3O[C@H]3COC[C@H]3O)c12 (racemic) [Example 2.7] |  | 97 |  |
| Cc1cc(N=S2(=O)CCCC2)cc2ncnc(Nc3ccc(F)cc3O[C@H]3COC[C@H]3O)c12 (racemic) [Example 2.8] | 2 | 100 |  |
| CO[C@@H]1COC[C@@H]1Oc1cc(F)ccc1Nc1ncnc2cc(N=S3(=O)CCCC3)cc(C)c12 (racemic) [Example 2.10] | 2 | 105 |  |
| Cc1cc(N=S2(=O)CCCC2)cc2ncnc(Nc3cccnc3O[C@H]3COC[C@H]3OCCF)c12 (racemic) [Example 2.25] | 2 |  | IC50 (MNK1a): 46 nM |
| O=S1(=Nc2cc(F)c3c(Nc4cccnc4O[C@H]4COC[C@H]4O)ncnc3c2)CCCC1 (racemic) [Example 2.30] |  | 97 |  |
| Cc1cc(N=S2(=O)CCCCC2)cc2ncnc(Nc3cccnc3O[C@H]3COC[C@H]3O)c12 (racemic) [Example 2.31] |  | 94 |  |
| Cc1cc(N=S2(=O)CCC2)cc2ncnc(Nc3cccnc3O[C@H]3COC[C@H]3O)c12 (racemic) [Example 2.32] |  | 97 |  |
| O=S1(=Nc2cc(F)c3c(Nc4cccnc4O[C@H]4COC[C@H]4O)ncnc3c2)CCC1 (racemic) [Example 2.33] |  | 91 |  |
| CO[C@@H]1COC[C@H]1Oc1ncccc1Nc1ncnc2cc(N=S(C)(C)=O)cc(C)c12 (racemic) [Example 2.34] |  | 70 |  |

| SMILES | IC50 (MNK2a) [nM] | inhibition at 1 µM (MNK1a; compound concentration of 1 μM) [%] | other results |
| --- | --- | --- | --- |
| CO[C@@H]1COC[C@H]1Oc1ncccc1Nc1ncnc2cc(N=S3(=O)CCC3)cc(C)c12 (racemic) [Example 2.35] |  | 97 |  |
| CO[C@H]1COC[C@@H]1Oc1ncccc1Nc1ncnc2cc(N=S3(=O)CCCC3)cc(C)c12 (racemic) [Example 2.39] | 7 | 86 |  |
| CO[C@@H]1CC[C@@H](Oc2cc(F)ccc2Nc2ncnc3cc(N=S(C)(C)=O)cc(C)c23)CO1 (racemic) [Example 2.63] |  | 102 |  |
| Cc1cc(N=S2(=O)CCC2)cc2ncnc(Nc3ccc(F)cc3O[C@@H]3COC[C@@H]3O)c12 (racemic) [Example 2.67] |  | 100 |  |
| Cc1cc(N=S(C)(=O)C2CC2)cc2ncnc(Nc3ccc(F)cc3O[C@@H]3COC[C@@H]3O)c12 (mixture of isomers) [Example 2.72] |  | 98 |  |
| Cc1cc(N=S2(=O)CCC2)cc2ncnc(Nc3ccc(F)cc3O[C@@H]3COC[C@@H]3O)c12 (single isomer, unassigned) [Example 1.36] |  | 98 |  |
| Cc1cc(N=S2(=O)CCC2)cc2ncnc(Nc3ccc(F)cc3O[C@H]3COC[C@H]3O)c12 (single isomer, unassigned) [Example 1.37] |  | 97 |  |
| Cc1cc(N=S2(=O)CCCC2)cc2ncnc(Nc3cccnc3O[C@H]3COC[C@@H]3O)c12 [Example 2.24] |  | 99 |  |
| Cc1cc(N=S(C)(C)=O)cc2ncnc(Nc3ccc(F)cc3O[C@H]3COC[C@@H]3O)c12 [Example 2.27] |  | 97 |  |
| Cc1cc(N=S2(=O)CCC2)cc2ncnc(Nc3ccc(F)cc3O[C@H]3COC[C@@H]3O)c12 [Example 2.36] |  |  | IC50 (MNK1a): 51 nM |
| Cc1cc(N=S(C)(C)=O)cc2ncnc(Nc3ccc(F)cc3O[C@H]3COC[C@@H]3O)c12 [Example 2.45] |  |  | IC50 (MNK1a): 92 nM; MNK1 % INH (MNK1a; compound concentration of 1 μM): 92% |
| Cc1cc(N=S2(=O)CCC2)cc2ncnc(Nc3ccc(F)cc3O[C@@H]3COC[C@H]3O)c12 [Example 2.47] |  | 103 |  |
| Cc1cc(N=S2(=O)CCC2)cc2ncnc(Nc3cccnc3O[C@@H]3COC[C@H]3O)c12 [Example 2.49] |  | 94 |  |
| O=S1(=Nc2cc(F)c3c(Nc4ccc(F)cc4O[C@H]4COC[C@@H]4O)ncnc3c2)CCCC1 [Example 2.66] |  | 100 |  |
| Cc1cc(N=S(C)(=O)C2CC2)cc2ncnc(Nc3ccc(F)cc3O[C@H]3COC[C@@H]3O)c12 (stereo partly shown) [Example 2.77] |  | 94 |  |

From patent US10093660B2, “Sulfoximine substituted quinazolines for pharmaceutical compositions” (EVOTEC INTERNATIONAL GMBH, priority 2013, dated 2018)
